Assay results reported in ChEMBL document CHEMBL4177654, “Synthesis, antifungal and antitumor activity of two new types of imidazolin-2-ones” (Bioorg Med Chem, 2017).
Active and inactive are the calls of the source. The rule behind the calls is not given here.

Tests used:
[1] = system: Botrytis cinerea; assay: Antifungal activity against Botrytis cinerea assessed as inhibition of mycelium growth at 25 ug/ml after 48 hrs relative to control; type: functional
[2] = system: Botrytis cinerea; assay: Antifungal activity against Botrytis cinerea assessed as inhibition of spore germination at 50 ug/ml after 6 hrs by microscopic analysis relative to control; type: functional
[3] = Inhibition of mTORC2 in human HeLa cells assessed as decrease in AKT phosphorylation at S473 residue preincubated for 1 hr followed by EGF1 stimulation by ELISA; type: cell-based
[4] = system: Botrytis cinerea; assay: Antifungal activity against Botrytis cinerea assessed as inhibition of mycelium growth at 5 ug/ml after 48 hrs relative to control; type: functional
[5] = system: HeLa; assay: Inhibition of mTORC2 in human HeLa cells assessed as decrease in AKT phosphorylation at S473 residue preincubated for 1 hr followed by EGF1 stimulation after 30 mins by Western blot analysis; type: cell-based
[6] = system: Botrytis cinerea; assay: Antifungal activity against Botrytis cinerea assessed as inhibition of spore germination at 5 ug/ml after 6 hrs by microscopic analysis relative to control; type: functional

| Structure (SMILES) | inhibition at 25 µg/mL [1] | inhibition at 50 µg/mL [2] | further results |
| --- | --- | --- | --- |
| C=C(C)n1c(=O)n(C(=O)CCCCC)c2cc(Br)cnc21 | 42.5% | 23.5% | – |
| NC1(c2ccc(-c3nc4ccn5c(=O)[nH]nc5c4cc3-c3ccccc3)cc2)CCC1 [MK-2206] | – | – | IC50 [3]: 22.8 nM |
| C=C(C)n1c(=O)n(C(=O)CC)c2cc([N+](=O)[O-])ccc21 | – | 45.2% | – |
| C=C(C)n1c(=O)n(C(=O)CCC)c2cc([N+](=O)[O-])ccc21 | – | 46.7% | – |
| C=C(C)n1c(=O)n(C(=O)CCCCC)c2ccc([N+](=O)[O-])cc21 | – | 55.9% | – |
| C=C(C)n1c(=O)n(C(=O)c2cccc(Cl)c2)c2cc(Br)cnc21 | 55.8% | 59.2% | – |
| C=C(C)n1c(=O)n(C(=O)CCCCCCC)c2ccc([N+](=O)[O-])cc21 | – | 32.5% | – |
| C=C(C)n1c(=O)n(C(=O)c2ccccc2Cl)c2cc(Br)cnc21 | 17.5% | 13.3% | – |
| C=C(C)n1c(=O)n(C(=O)c2ccccc2C)c2ccc([N+](=O)[O-])cc21 | 18.5% | 68.3% | – |
| C=C(C)n1c(=O)n(C(=O)c2cccc(C)c2)c2cc([N+](=O)[O-])ccc21 | – | 60.2% | – |
| C=C(C)n1c(=O)n(C(C)=O)c2cc([N+](=O)[O-])ccc21 | 33.5% | 85.2% | – |
| C=C(C)n1c(=O)n(C(=O)c2ccc(Cl)cc2)c2cc(Br)cnc21 | 54% | 28.6% | – |
| C=C(C)n1c(=O)n(C(=O)CCCC)c2ccc([N+](=O)[O-])cc21 | – | 51.8% | – |
| C=C(C)n1c(=O)n(C(=O)CCC)c2cc(Br)cnc21 | 97.3% | 99% | – |
| C=C(C)n1c(=O)n(C(=O)c2cccc(Cl)c2)c2ccc([N+](=O)[O-])cc21 | 16.7% | 86.2% | – |
| C=C(C)n1c(=O)n(C(=O)c2ccccc2Cl)c2cc([N+](=O)[O-])ccc21 | – | 59.2% | – |
| C=C(C)n1c(=O)n(C(=O)c2ccccc2C)c2cc(Br)cnc21 | 53.7% | 49% | – |
| C=C(C)n1c(=O)n(C(=O)c2cccc(C)c2)c2cc(Br)cnc21 | 41.5% | 17.4% | – |
| COC(=O)Nc1nc2ccccc2[nH]1 [CARBENDAZIM] | – | – | inhibition at 5 µg/mL [4]: 94.2% |

| Structure (SMILES) | inhibition at 25 µg/mL [1] | inhibition at 50 µg/mL [2] | further results |
| --- | --- | --- | --- |
| C=C(C)n1c(=O)n(C(=O)CCCC)c2cc(Br)cnc21 | 60.1% | 59.2% | – |
| C=C(C)n1c(=O)n(C(=O)c2cccc(C)c2)c2ccc([N+](=O)[O-])cc21 | 11.4% | 65.8% | – |
| C=C(C)n1c(=O)n(C(=O)CCCCCCC)c2cc([N+](=O)[O-])ccc21 | – | 30.7% | – |
| C=C(C)n1c(=O)n(C(=O)CC)c2ccc([N+](=O)[O-])cc21 | 8.72% | 49.6% | – |
| C=C(C)n1c(=O)n(C(=O)CCCCCC)c2cc(Br)cnc21 | 44.9% | 59.2% | – |
| C=C(C)n1c(=O)n(C(=O)Cc2ccccc2)c2cc(Br)cnc21 | 66.7% | 59.2% | inhibition [5]: Active |
| C=C(C)n1c(=O)n(C(=O)c2ccccc2)c2cc(Br)cnc21 | 37.2% | 38.8% | – |
| C=C(C)n1c(=O)n(C(=O)CCCC)c2cc([N+](=O)[O-])ccc21 | 7.26% | 48.5% | – |
| CO/C=C(/C(=O)OC)c1ccccc1Oc1cc(Oc2ccccc2C#N)ncn1 [AZOXYSTROBIN] | – | – | inhibition at 5 µg/mL [6]: 92.1%; inhibition at 5 µg/mL [4]: 98.8% |
| C=C(C)n1c(=O)n(C(C)=O)c2ccc([N+](=O)[O-])cc21 | 97.7% | 100% | – |
| C=C(C)n1c(=O)n(C(=O)c2ccccc2C)c2cc([N+](=O)[O-])ccc21 | – | 60.8% | – |
| C=C(C)n1c(=O)n(C(=O)C2CC2)c2cc(Br)cnc21 | 92.8% | 78.6% | – |
| C=C(C)n1c(=O)n(C(=O)CCCCC)c2cc([N+](=O)[O-])ccc21 | 5.65% | 42.9% | – |
| C=C(C)n1c(=O)n(C(=O)CCCCCCC)c2cc(Br)cnc21 | 51.3% | 49% | – |
| C=C(C)n1c(=O)n(C(=O)c2ccccc2Cl)c2ccc([N+](=O)[O-])cc21 | 13.6% | 72.1% | – |
| C=C(C)n1c(=O)n(C(=O)CCC)c2ccc([N+](=O)[O-])cc21 | – | 52.4% | – |
| C=C(C)n1c(=O)n(C(=O)c2cccc(Cl)c2)c2cc([N+](=O)[O-])ccc21 | 10.7% | 63.4% | – |
| C=C(C)n1c(=O)n(C(=O)CCl)c2cc(Br)cnc21 | 69% | 74.9% | inhibition [5]: Active |
| C=C(C)n1c(=O)n(C(=O)CC)c2cc(Br)cnc21 | 94.2% | 98% | – |
